The record followed here is patent US8618289B2 (Ambit Biosciences Corporation, priority 2008, dated 2013).

The test system of assay [1] is 290 distinct kinases tested excluding mutant variants (321 in the larger panel).
In assay [2] the test system is MEK1 phosphorylation in the A375 human melanoma cell line. The assay can be described thus: cells. Conditions: A-375, read-out: pMEK IC50.
The subject of a further assay is A375 cells. The assay can be described thus: cells. As to conditions: Homo sapiens, A-375, read-out: A375 Viability EC50.
The target of assay [3] is T1, RAF kinases (Homo sapiens, UniProt P04049). Conditions: read-out: RAF1 Kd; RAF1.
T1 sequence (P04049 whole entry): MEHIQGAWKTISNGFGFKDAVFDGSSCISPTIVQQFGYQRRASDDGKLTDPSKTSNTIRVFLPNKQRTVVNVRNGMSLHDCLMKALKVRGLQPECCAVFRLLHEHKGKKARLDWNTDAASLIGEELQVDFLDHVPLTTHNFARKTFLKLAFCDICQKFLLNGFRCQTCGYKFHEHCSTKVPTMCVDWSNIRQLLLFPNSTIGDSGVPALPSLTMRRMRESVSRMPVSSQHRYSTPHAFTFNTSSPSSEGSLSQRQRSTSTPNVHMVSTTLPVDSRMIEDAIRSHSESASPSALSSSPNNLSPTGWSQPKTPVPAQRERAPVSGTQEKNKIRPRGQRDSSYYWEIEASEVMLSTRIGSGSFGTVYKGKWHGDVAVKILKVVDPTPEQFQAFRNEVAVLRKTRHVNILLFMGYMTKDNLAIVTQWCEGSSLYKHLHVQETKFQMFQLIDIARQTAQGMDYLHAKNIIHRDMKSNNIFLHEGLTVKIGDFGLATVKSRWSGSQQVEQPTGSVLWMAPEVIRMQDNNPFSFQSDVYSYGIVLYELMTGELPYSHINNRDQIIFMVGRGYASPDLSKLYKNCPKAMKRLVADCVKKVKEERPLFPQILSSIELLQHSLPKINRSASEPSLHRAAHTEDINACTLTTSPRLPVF
Procedure: (§1) Competition binding assays used herein were developed, validated and performed as described in Fabian et al., Nature Biotechnology 2005, 23, 329-336. […] The liganded beads were blocked with excess biotin and washed with blocking buffer (SeaBlock (Pierce), 1% BSA, 0.05% Tween 20, 1 mM DTT) to remove unbound ligand and to reduce non-specific binding. […] Test compounds were prepared as 100× stocks in DMSO and rapidly diluted into the aqueous environment. DMSO was added to control assays lacking a test compound. Primary screen interactions were performed in polypropylene 384-well plates in a final volume of 34 μt, while Kd determinations were performed in polystyrene 96-well plates in a final volume of 135 pt. […] The kinase concentration in the eluates was measured by quantitative PCR. Each kinase was tested individually against each compound. Kds were determined using eleven serial threefold dilutions. A selectivity score, which is a quantitative measure of selectivity of a compound against a panel of enzymes, may be calculated for a compound by dividing the number of enzymes for which a compound meets a set criteria, (for example, a binding constant of 100 nM or less), by the total number of enzymes tested. […] (Note, for those compounds tested in a larger kinase panel, as indicated by an asterisk (*) next to the S35 score, the divisor is 321 (i.e. the larger panel contains 321 distinct kinases, excluding mutant variants.)).
Assay [4] concerns the target T2, RAF kinases (Homo sapiens, UniProt P15056). Conditions: read-out: BRAF WT Kd; BRAF WT.
Procedure: as §1
The target in assay [5] is T3, RAF kinases (Homo sapiens, UniProt P15056, V600E). Put plainly: biochemical.
T3 sequence (P15056 whole entry V600E): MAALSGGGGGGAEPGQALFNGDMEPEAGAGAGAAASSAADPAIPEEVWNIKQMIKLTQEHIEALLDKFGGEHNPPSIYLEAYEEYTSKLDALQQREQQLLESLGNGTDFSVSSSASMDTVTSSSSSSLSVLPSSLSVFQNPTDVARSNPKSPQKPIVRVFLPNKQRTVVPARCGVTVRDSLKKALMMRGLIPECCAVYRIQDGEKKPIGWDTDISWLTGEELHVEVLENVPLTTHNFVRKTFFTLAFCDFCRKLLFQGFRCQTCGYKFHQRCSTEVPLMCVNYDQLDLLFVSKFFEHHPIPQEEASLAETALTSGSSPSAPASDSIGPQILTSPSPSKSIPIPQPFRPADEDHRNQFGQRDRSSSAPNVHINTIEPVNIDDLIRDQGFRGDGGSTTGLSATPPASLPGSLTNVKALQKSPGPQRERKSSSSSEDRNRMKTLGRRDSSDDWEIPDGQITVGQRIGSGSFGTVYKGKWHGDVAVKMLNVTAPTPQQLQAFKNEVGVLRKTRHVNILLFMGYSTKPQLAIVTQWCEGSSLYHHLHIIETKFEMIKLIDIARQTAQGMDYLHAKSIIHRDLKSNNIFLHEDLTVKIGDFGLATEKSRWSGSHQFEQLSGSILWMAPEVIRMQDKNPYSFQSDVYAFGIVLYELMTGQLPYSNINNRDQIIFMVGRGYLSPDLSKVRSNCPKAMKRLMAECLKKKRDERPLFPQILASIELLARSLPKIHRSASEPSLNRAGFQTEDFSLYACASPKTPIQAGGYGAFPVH
Procedure: as §1
For assay [6], the target named is T3, RAF kinases. Conditions: read-out: BRAF V600E Kd; BRAF V600E.
Procedure: as §1
Assay [7] deals with T1, RAF kinases. The assay can be described thus: biochemical.
Procedure: as §1
Assay [8] has as its target T2, RAF kinases. The assay can be described thus: biochemical.
Procedure: as §1
[9] abbreviates: no asterisk: panel of 290 distinct kinases.
The mark [10] stands for this setting: asterisk: panel of 321 distinct kinases.

Where two headings read alike, the source gives them in different places. A value given as a limit tells only on which side of the number the result lay.

T2 sequence (P15056 whole entry): as the sequence (P15056 whole entry V600E) above, with E600V counted along it

Consider `COc1cc(OC2CCOCC2)c2c(Sc3cccc(NC(=O)Nc4cc(C(C)(C)C)on4)c3)ncnc2c1`, for which the S35 entry in assay [1] (setting [9]) was “C (0.20 < C ≦ 0.40)”.

The IC50 is the midpoint of a concentration-inhibition curve. As usually defined, the EC50 is the concentration that produces a half-maximal response. Take `COc1cc2ncnc(Sc3cccc(NC(=O)Nc4cc(C(F)(F)F)n(-c5ccccc5)n4)c3)c2cc1OC` [Ex 170, 1-[3-(6,7-dimethoxyquinazolin-4-ylthio)phenyl]-3-[1-phenyl-5-(trifluoromethyl)-1H-pyrazol-3-yl]urea]: in [1] (setting [10]), the S35 result is on record as “B* (0.10 < B ≦ 0.20)”. The IC50 in assay [2] fell in the range of 250 to 500 nM. The EC50 in the assay on A375 cells was in the range of 250 to 500 nM.

With `COc1cc2ncnc(Sc3cccc(NC(=O)Nc4cc(C(F)(F)F)n(C)n4)c3)c2cc1OC` [Ex 194, 1-[3-(6,7-dimethoxyquinazolin-4-ylthio)phenyl]-3-[1-methyl-5-(trifluoromethyl)-1H-pyrazol-3-yl]urea], the S35 result in assay [1] (setting [10]) is reported as “C* (0.20 < C ≦ 0.40)”. Further, in assay [2], the IC50 fell in the range of 250 to 500 nM. Also, in the assay on A375 cells, the EC50 was in the range of 500 to 1000 nM.

The Kd is the equilibrium constant for the complex coming apart. Consider `COCCOc1cc2ncnc(Oc3cccc(NC(=O)Nc4cc(C(C)(CF)CF)nn4-c4ccccc4)c3)c2cc1OC` [Ex 228, 1-[3-(1,3-difluoro-2-methylpropan-2-yl)-1-phenyl-1H-pyrazol-5-yl]-3-{3-[6-methoxy-7-(2-methoxyethoxy)quinazolin-4-yloxy]phenyl}urea], for which the Kd at RAF kinases [3] is more than 1000 nM; at RAF kinases [4], more than 1000 nM; at RAF kinases [5], 500 to 1000 nM. The IC50 in assay [2] is less than 250 nM. The EC50 in the assay with A375 cells was more than 1000 nM.

In the case of `COc1cc2ncnc(Oc3cccc(NC(=O)Nc4cc(C(C)(C)C)nn4-c4cccnc4)c3)c2cc1OC` [Ex 322, 1-(3-tert-butyl-1-(pyridin-3-yl)-1H-pyrazol-5-yl)-3-(3-(6,7-dimethoxyquinazolin-4-yloxy)phenyl)urea], the Kd on RAF kinases [6] was less than 250 nM; on RAF kinases [7], 250 to 500 nM; on RAF kinases [8], 250 to 500 nM. Also, in assay [1] (setting [9]), the S35 entry is reported as “D (D > 0.40)”. Moreover, the IC50 in assay [2] was less than 250 nM.

`COCCOc1cc2ncnc(Oc3cccc(NC(=O)Nc4cc(C(F)(F)F)n(-c5ccccc5)n4)c3)c2cc1OC` [Ex 225, 1-{3-[6-methoxy-7-(2-methoxyethoxy)quinazolin-4-yloxy]phenyl}-3-[1-phenyl-5-(trifluoromethyl)-1H-pyrazol-3-yl]urea]: the figures for the Kd on RAF kinases [3], at RAF kinases [4] and on RAF kinases [5] were more than 1000 nM, more than 1000 nM and 250 to 500 nM, respectively. The IC50 in assay [2] lay in the range of 500 to 1000 nM. Further, in the assay with A375 cells, the EC50 was more than 1000 nM.

Turning to `COc1cc2ncnc(Sc3cccc(NC(=O)Nc4cc(C(C)(C)C)nn4-c4ccncc4)c3)c2cc1OC` [Ex 337, 1-(3-tert-butyl-1-(pyridin-4-yl)-1H-pyrazol-5-yl)-3-(3-(6,7-dimethoxyquinazolin-4-ylthio)phenyl)urea], the Kd was less than 250 nM on RAF kinases [6], 500 to 1000 nM at RAF kinases [7] and 500 to 1000 nM on RAF kinases [8]. Moreover, the S35 result in assay [1] (setting [9]) is given as “D (D > 0.40)”. In addition, the IC50 in [2] is less than 250 nM.

Take `COc1cc2ncnc(Oc3cccc(NC(=O)Nc4cc(C(C)(C)C)nn4-c4ccncc4)c3)c2cc1OC` [Ex336, 1-(3-tert-butyl-1-(pyridin-4-yl)-1H-pyrazol-5-yl)-3-(3-(6,7-dimethoxyquinazolin-4-yloxy)phenyl)urea]: the Kd on RAF kinases [6] is less than 250 nM; on RAF kinases [7], 500 to 1000 nM; on RAF kinases [8], 500 to 1000 nM. Also, the S35 result in [1] (setting [9]) is listed as “D (D > 0.40)”. Besides, the IC50 in [2] is less than 250 nM.

Turning to `COCCOc1cc2ncnc(Oc3cccc(NC(=O)Nc4cc(C5CCOCC5)no4)c3)c2cc1OC` [Ex 216, 1-(3-(6-methoxy-7-(2-methoxyethoxy)quinazolin-4-yloxy)phenyl)-3-(3-(tetrahydro-2H-pyran-4-yl)isoxazol-5-yl)urea], the Kd at RAF kinases [3] is more than 1000 nM; on RAF kinases [4], more than 1000 nM; at RAF kinases [5], 250 to 500 nM. In addition, the half-maximal inhibitory concentration (IC50) in [2] is more than 1000 nM. The EC50 in the assay on A375 cells was more than 1000 nM.

With `COc1cc2ncnc(Oc3cccc(NC(=O)Nc4cc(C(C)(C)CN5CCOCC5)on4)c3)c2cc1OC` [Ex 302, 1-(3-(6,7-dimethoxyquinazolin-4-yloxy)phenyl)-3-(5-(2-methyl-1-morpholinopropan-2-yl)isoxazol-3-yl)urea], the Kd was more than 1000 nM at RAF kinases [3], more than 1000 nM on RAF kinases [4] and 250 to 500 nM on RAF kinases [5]. The half-maximal inhibitory concentration (IC50) in [2] was more than 1000 nM. Moreover, the EC50 in the assay with A375 cells was more than 1000 nM.

As to `COc1cc2ncnc(Oc3cccc(NC(=O)Nc4cc(C(F)(F)C(F)(F)F)nn4-c4ccccc4)c3)c2cc1OC` [Ex 304, 1-(3-(6,7-dimethoxyquinazolin-4-yloxy)phenyl)-3-(3-(perfluoroethyl)-1-phenyl-1H-pyrazol-5-yl)urea], the Kd at RAF kinases [3] was more than 1000 nM; at RAF kinases [4], more than 1000 nM; on RAF kinases [5], 250 to 500 nM. In [2], the IC50 was 250 to 500 nM. For the same compound, the EC50 with A375 cells is less than 250 nM.

As for `COCCOc1cc2ncnc(Sc3cccc(NC(=O)Nc4ccc(C(F)(F)F)c(OC)c4)c3)c2cc1OC` [Ex 233, 1-(3-methoxy-4-(trifluoromethyl)phenyl)-3-(3-(6-methoxy-7-(2-methoxyethoxy)quinazolin-4-ylthio)phenyl)urea], the Kd is more than 1000 nM on RAF kinases [3], more than 1000 nM at RAF kinases [4] and 500 to 1000 nM on RAF kinases [5]. Also, in assay [2], the IC50 is more than 1000 nM. The EC50 in the assay with A375 cells is more than 1000 nM.

On to `COCCOc1cc2ncnc(Sc3cccc(NC(=O)Nc4cc(C(C)(C)C)nn4-c4ccc(C)cc4C)c3)c2cc1OC` [Ex 283, 1-(3-tert-butyl-1-(2,4-dimethylphenyl)-1H-pyrazol-5-yl)-3-(3-(6-methoxy-7-(2-methoxyethoxy)quinazolin-4-ylthio)phenyl)urea], for which the Kd at RAF kinases [3] was more than 1000 nM; on RAF kinases [4] it was more than 1000 nM; at RAF kinases [5], 500 to 1000 nM. Further, in [2], the IC50 was less than 250 nM. Moreover, the EC50 with A375 cells was more than 1000 nM.

Take `COCCOc1cc2ncnc(Oc3cccc(NC(=O)Nc4cc(C(F)(F)F)nn4-c4ccc(C)cc4)c3)c2cc1OC` [Ex 227, 1-{3-[6-methoxy-7-(2-methoxyethoxy)quinazolin-4-yloxy]phenyl}-3-[1-p-tolyl-3-(trifluoromethyl)-1H-pyrazol-5-yl]urea]: the figures for the Kd on RAF kinases [3], on RAF kinases [4] and on RAF kinases [5] were more than 1000 nM, more than 1000 nM and 500 to 1000 nM, respectively. Further, the IC50 in assay [2] is 250 to 500 nM. In addition, the EC50 in the assay with A375 cells was 250 to 500 nM.

For `COCCOc1cc2ncnc(Sc3cccc(NC(=O)Nc4ccc(C(F)(F)F)c(F)c4)c3)c2cc1OC` [Ex 231, 1-(3-fluoro-4-(trifluoromethyl)phenyl)-3-(3-(6-methoxy-7-(2-methoxyethoxy)quinazolin-4-ylthio)phenyl)urea], the Kd is more than 1000 nM at RAF kinases [3], more than 1000 nM on RAF kinases [4] and 500 to 1000 nM at RAF kinases [5]. Also, the IC50 in assay [2] was more than 1000 nM. The EC50 in the assay on A375 cells is more than 1000 nM.

`CCOC(=O)Cn1nc(C(C)(C)C)cc1NC(=O)Nc1cccc(Sc2ncnc3cc(OCCOC)c(OC)cc23)c1` [Ex 237, ethyl 2-[3-tert-butyl-5-(3-{3-[6-methoxy-7-(2-methoxyethoxy)quinazolin-4-ylthio]phenyl}ureido)-1H-pyrazol-1-yl]acetate]: the Kd at RAF kinases [3] was more than 1000 nM; on RAF kinases [4], more than 1000 nM; at RAF kinases [5], 500 to 1000 nM. In assay [2], the IC50 is 500 to 1000 nM. In addition, in the assay on A375 cells, the EC50 is more than 1000 nM.
